# Experimental data reported in patent publication US10179782B2, “Substituted sulfonamide compounds” (Genentech, Inc., priority 2016, dated 2019).
# Read-outs that look alike come from different tables or passages of the source.
# Molecular target: T1, human TRPA1 (Homo sapiens, UniProt O75762)
# T1 construct: expressed in transfected cells; host or cells: CHO cells
# Experiment: TRPA1 FLIPR Tetra calcium influx assay in CHO cells (block of cinnamaldehyde-induced calcium influx)
# Assay type: cell-based
# Settings: CHO cells expressing TRPA1, agonist cinnamaldehyde 75 uM, read-out: hTRPA1 CHO Ca2+ AUC EVO (IC50)
# Experimental: IC50s (effective concentration) of compounds on the human and rat TRPA1 channels were determined using a FLIPR Tetra instrument. CHO cells expressing TRPA1 were plated into 384-well plates, incubated overnight at 37 C, and loaded with BD calcium indicator dye for 1 hr at 37° C. followed by 15 minutes at room temperature. The assay buffer was Hank's Balanced Salt Solution (HBSS) containing 20 mM HEPES (pH readjusted to 7.4) along with 0.02% BSA.
# Following dye load and plate cool down, compounds were added to the cells using FLIPR Tetra. Plates were then incubated with compounds for 20 minutes at room temperature prior to adding agonist. Following this incubation, ˜EC80 concentration of cinnamaldehyde (75 uM for human TRPA1 and 45 uM for rat TRPA1) was added to active the channels and block of cinnamaldehyde induced calcium influx was measured.
# IC50s were fit with a standard Hill function, keeping the Hill coefficient (n) fixed to 1.5. Fixing the Hill coefficient will generally reduce variability of the IC50 determination. The IC50s were individually examined to make sure the MIN and MAX points were set correctly prior to validation of the results.
# [1] = Table 2, 20 min compound incubation, Hill coefficient fixed to 1.5
# [2] = Table 1, with vs without substituent at R2/R3
# T1 sequence (O75762 whole entry): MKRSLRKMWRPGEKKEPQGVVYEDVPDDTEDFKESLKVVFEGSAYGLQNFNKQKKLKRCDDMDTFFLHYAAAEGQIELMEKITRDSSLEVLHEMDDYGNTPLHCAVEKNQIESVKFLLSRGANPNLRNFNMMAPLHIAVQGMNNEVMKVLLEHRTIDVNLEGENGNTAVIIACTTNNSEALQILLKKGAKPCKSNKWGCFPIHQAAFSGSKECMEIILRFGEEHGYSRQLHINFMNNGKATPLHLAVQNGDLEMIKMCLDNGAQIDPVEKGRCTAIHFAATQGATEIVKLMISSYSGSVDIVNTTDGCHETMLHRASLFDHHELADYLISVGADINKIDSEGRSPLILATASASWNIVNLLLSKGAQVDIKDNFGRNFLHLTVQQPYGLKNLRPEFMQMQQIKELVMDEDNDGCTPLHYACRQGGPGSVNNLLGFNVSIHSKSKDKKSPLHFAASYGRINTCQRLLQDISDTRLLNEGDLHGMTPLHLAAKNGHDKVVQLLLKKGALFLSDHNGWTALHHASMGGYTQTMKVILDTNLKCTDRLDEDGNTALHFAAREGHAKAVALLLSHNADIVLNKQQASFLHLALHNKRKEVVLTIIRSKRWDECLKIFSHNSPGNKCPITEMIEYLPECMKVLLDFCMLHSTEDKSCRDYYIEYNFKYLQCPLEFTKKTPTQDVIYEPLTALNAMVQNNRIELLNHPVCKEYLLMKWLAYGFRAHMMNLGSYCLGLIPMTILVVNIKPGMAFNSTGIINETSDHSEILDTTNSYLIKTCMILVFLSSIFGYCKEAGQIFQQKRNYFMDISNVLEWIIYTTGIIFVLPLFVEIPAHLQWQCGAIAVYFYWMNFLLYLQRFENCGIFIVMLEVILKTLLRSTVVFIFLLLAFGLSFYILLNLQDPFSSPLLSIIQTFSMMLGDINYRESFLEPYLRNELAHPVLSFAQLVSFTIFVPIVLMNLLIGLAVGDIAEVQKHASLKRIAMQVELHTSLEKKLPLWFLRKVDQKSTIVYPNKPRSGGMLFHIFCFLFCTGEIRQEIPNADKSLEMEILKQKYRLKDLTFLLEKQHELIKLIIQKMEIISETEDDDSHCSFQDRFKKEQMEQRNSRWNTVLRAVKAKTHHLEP
SMILES,IC50 [1],IC50 [2]
"O=C(NCc1cc(-c2cnc(C(F)(F)F)nc2)ncc1F)[C@@H]1[C@H]2C[C@H]2CN1S(=O)(=O)c1ccc(F)cc1 (single isomer, unassigned) [Example 68]",14.6 nM,
"O=C(NCc1ccc(F)c(-c2cnc(C(F)(F)F)nc2)c1)[C@H]1[C@@H]2C[C@@H]2CN1S(=O)(=O)c1ccc(F)cc1 (stereo in doubt) [Example 70, (1S,4R,5R)-3-(4-fluorophenyl)sulfonyl-N-[[4-fluoro-3-[2-(trifluoromethyl)pyrimidin-5-yl]phenyl]methyl]-3-azabicyclo[3.1.0]hexane-4-carboxamide]",11.3 nM,
"O=C(NCc1cc(-c2cnc(C(F)(F)F)nc2)ncc1F)[C@H]1[C@@H]2C[C@@H]2CN1S(=O)(=O)c1ccc(F)cc1 (stereo in doubt) [Example 79, (1S,4R,5R)-3-(4-fluorophenyl)sulfonyl-N-[[5-fluoro-2-[2-(trifluoromethyl)pyrimidin-5-yl]-4-pyridyl]methyl]-3-azabicyclo[3.1.0]hexane-4-carboxamide]",14.6 nM,
"O=C(NCc1cc(-c2cnc(C(F)(F)F)nc2)ncn1)[C@@H]1C[C@@H](F)CN1S(=O)(=O)c1ccc(F)cc1 [(2S,4R)-4-fluoro-1-(4-fluorophenyl)sulfonyl-N-[[6-[2-(trifluoromethyl)pyrimidin-5-yl]pyrimidin-4-yl]methyl]pyrrolidine-2-carboxamide, reference compound]",,251 nM
"C[C@H]1[C@H](F)C[C@@H](C(=O)NCc2cc(-c3cnc(C(F)(F)F)nc3)ncc2F)N1S(=O)(=O)c1ccc(F)cc1 [Example 1, (2S,4R,5S)-4-fluoro-N-([5-fluoro-2-[2-(trifluoromethyl)pyrimidin-5-yl]pyridin-4-yl]methyl)-1-[(4-fluorobenzene)sulfonyl]-5-methylpyrrolidine-2-carboxamide]",1.91 nM,
"C[C@H]1[C@H](C#N)C[C@@H](C(=O)NCc2cc(-c3cnc(C(F)(F)F)nc3)ccc2F)N1S(=O)(=O)c1ccc(F)cc1 [Example 2, (2S,4R,5S)-4-cyano-N-([2-fluoro-5-[2-(trifluoromethyl)pyrimidin-5-yl]phenyl]methyl)-1-[(4-fluorobenzene)sulfonyl]-5-methylpyrrolidine-2-carboxamide]",7.46 nM,
"COc1nn(-c2cnc(C(F)(F)F)nc2)cc1CNC(=O)[C@@H]1C[C@@H](F)[C@H](C)N1S(=O)(=O)c1ccc(F)cc1 [Example 6, (2S,4R,5S)-4-fluoro-1-(4-fluorophenyl)sulfonyl-N-[[3-methoxy-1-[2-(trifluoromethyl)pyrimidin-5-yl]pyrazol-4-yl]methyl]-5-methyl-pyrrolidine-2-carboxamide]",9.62 nM,
"C[C@H]1[C@H](F)C[C@@H](C(=O)NCc2cn(-c3cnc(C(F)(F)F)nc3)nc2C(F)F)N1S(=O)(=O)c1ccc(F)cc1 [Example 7, (2S,4R,5S)-N-[[3-(difluoromethyl)-1-[2-(trifluoromethyl)pyrimidin-5-yl]pyrazol-4-yl]methyl]-4-fluoro-1-(4-fluorophenyl)sulfonyl-5-methyl-pyrrolidine-2-carboxamide]",26.2 nM,
"C[C@H]1[C@H](F)C[C@@H](C(=O)NCc2cc(-c3cnc(C(F)(F)F)nc3)ncn2)N1S(=O)(=O)c1ccc(F)cc1 [Example 8, (2S,4R,5S)-4-fluoro-1-(4-fluorophenyl)sulfonyl-5-methyl-N-[[6-[2-(trifluoromethyl)pyrimidin-5-yl]pyrimidin-4-yl]methyl]pyrrolidine-2-carboxamide]",17.3 nM,
"O=C(NCc1cc(-c2cnc(C(F)(F)F)nc2)ncn1)[C@@H]1CC[C@H](C(F)(F)F)N1S(=O)(=O)c1ccc(F)cc1 [Example 9, (2S,5R)-1-(4-fluorophenyl)sulfonyl-5-(trifluoromethyl)-N-[[6-[2-(trifluoromethyl)pyrimidin-5-yl]pyrimidin-4-yl]methyl]pyrrolidine-2-carboxamide]",42.2 nM,
"C[C@H]1[C@H](F)C[C@@H](C(=O)NCc2cc(Cl)nc(-c3cnc(C(F)(F)F)nc3)c2)N1S(=O)(=O)c1ccc(F)cc1 [Example 10, (2S,4R,5S)-N-[[2-chloro-6-[2-(trifluoromethyl)pyrimidin-5-yl]-4-pyridyl]methyl]-4-fluoro-1-(4-fluorophenyl)sulfonyl-5-methyl-pyrrolidine-2-carboxamide]",2.26 nM,

# Next, values leading:
IC50 [1],IC50 [2],SMILES
20 nM,,"C[C@H]1[C@H](F)C[C@@H](C(=O)NCc2cc(-c3cnc(C(F)(F)F)nc3)ncc2F)N1S(=O)(=O)c1cccc(Cl)c1 (stereo in doubt) [Example 91, (2S,4R,5S)-1-(3-chlorophenyl)sulfonyl-4-fluoro-N-[[5-fluoro-2-[2-(trifluoromethyl)pyrimidin-5-yl]-4-pyridyl]methyl]-5-methyl-pyrrolidine-2-carboxamide]"
8.69 nM,,"C[C@H]1[C@H](F)C[C@@H](C(=O)NCc2cc(-c3cnc(C(F)(F)F)nc3)ncc2F)N1S(=O)(=O)c1ccc(Cl)c(Cl)c1 (stereo in doubt) [Example 92, (2S,4R,5S)-1-(3,4-dichlorophenyl)sulfonyl-4-fluoro-N-[[5-fluoro-2-[2-(trifluoromethyl)pyrimidin-5-yl]-4-pyridyl]methyl]-5-methyl-pyrrolidine-2-carboxamide]"
,129 nM,"O=C(NCc1ccnc(-c2cnc(C(F)(F)F)nc2)c1)[C@@H]1C[C@@H](F)CN1S(=O)(=O)c1ccc(F)cc1 [(2S,4R)-4-fluoro-1-(4-fluorophenyl)sulfonyl-N-[[2-[2-(trifluoromethyl)pyrimidin-5-yl]-4-pyridyl]methyl]pyrrolidine-2-carboxamide, reference compound]"
,26.7 nM,"O=C(NCc1cc(-c2cnc(C(F)(F)F)nc2)ncc1F)[C@@H]1C[C@@H](F)CN1S(=O)(=O)c1ccc(F)cc1 [(2S,4R)-4-fluoro-1-(4-fluorophenyl)sulfonyl-N-[[5-fluoro-2-[2-(trifluoromethyl)pyrimidin-5-yl]-4-pyridyl]methyl]pyrrolidine-2-carboxamide, reference compound]"
,42.2 nM,"O=C(NCc1cc(-c2cnc(C(F)(F)F)nc2)c(Cl)cn1)[C@@H]1C[C@@H](F)CN1S(=O)(=O)c1ccc(F)cc1 [(2S,4R)-N-[[5-chloro-4-[2-(trifluoromethyl)pyrimidin-5-yl]-2-pyridyl]methyl]-4-fluoro-1-(4-fluorophenyl)sulfonyl-pyrrolidine-2-carboxamide, reference compound]"
1.12 nM,,"C[C@H]1CC[C@@H](C(=O)NCc2cc(Cl)nc(-c3cnc(C(F)(F)F)nc3)c2)N1S(=O)(=O)c1ccc(F)cc1 [Example 3, (2S,5S)—N-([2-chloro-6-[2-(trifluoromethyl)pyrimidin-5-yl]pyridin-4-yl]methyl)-1-[(4-fluorobenzene)sulfonyl]-5-methylpyrrolidine-2-carboxamide]"
71.2 nM,,"O=C(NCc1cc(-c2cnc(C(F)(F)F)nc2)ncn1)[C@@H]1CCC2(CC2)N1S(=O)(=O)c1ccc(F)cc1 [Example 4, (5S)-4-[(4-fluorobenzene)sulfonyl]-N-([6-[2-(trifluoromethyl)pyrimidin-5-yl]pyrimidin-4-yl]methyl)-4-azaspiro[2.4]heptane-5-carboxamide]"
3.77 nM,,"C[C@H]1[C@H](F)C[C@@H](C(=O)NCc2ccc(F)c(-c3cnc(C(F)(F)F)nc3)c2)N1S(=O)(=O)c1ccc(F)cc1 [Example 5, (2S,4R,5S)-4-fluoro-1-(4-fluorophenyl)sulfonyl-N-[[4-fluoro-3-[2-(trifluoromethyl)pyrimidin-5-yl]phenyl]methyl]-5-methyl-pyrrolidine-2-carboxamide]"
